For five compounds, IC50 results are on record in article PMC6479601, “Salicylate and Procyanidin-Rich Stem Extracts of Gaultheria procumbens L. Inhibit Pro-Inflammatory Enzymes and Suppress Pro-Inflammatory and Pro-Oxidant Functions of Human Neutrophils Ex Vivo” (International Journal of Molecular Sciences, 2019).

Experiment [1] concerns the target T1, HYAL (hyaluronidase).
T1 construct: gene SPAM1
As to the kind of experiment: hyaluronidase inhibition assay (Matczak et al.). It counts as biochemical. The following applies: eight-point curve; read-out: HYAL / IC50 (μg GAE/mL; μM) ^b. The text has this:
hyaluronidase inhibition assay (Matczak et al.) on HYAL (hyaluronidase)

Experiment [2] deals with T2, LOX (lipoxygenase).
T2 construct: gene LOX1.1
As to the kind of experiment: lipoxygenase inhibition assay (Matczak et al.). It counts as biochemical. The following applies: eight-point curve; read-out: LOX / IC50 (mg GAE/mL; mM) ^b. An excerpt: lipoxygenase inhibition assay (Matczak et al.) on LOX (lipoxygenase)

As to `O=c1c(O)c(-c2ccc(O)c(O)c2)oc2cc(O)cc(O)c12` [compound 39, QU], the IC50 stood at 102 ± 6.09 µM in experiment [1] and 0.3 ± 0.02 mM in experiment [2].

For `Oc1cc(O)c2c(c1)O[C@H](c1ccc(O)c(O)c1)[C@H](O)[C@H]2c1c(O)cc(O)c2c1O[C@H](c1ccc(O)c(O)c1)[C@H](O)C2` [PB2], the IC50 in experiment [1] was found to be 37.4 ± 1.78 µM; in experiment [2], 0.29 ± 0.03 mM.

As for `COC(=O)c1ccccc1O[C@@H]1O[C@H](CO[C@@H]2OC[C@@H](O)[C@H](O)[C@H]2O)[C@@H](O)[C@H](O)[C@H]1O` [compound 18, methyl salicylate 2-O-(6′-O-β-D-xylopyranosyl)-β-D-glucopyranoside], the IC50 in experiment [1] was determined as 64 ± 2.87 µM; in experiment [2], 1.26 ± 0.04 mM.

Regarding `COc1ccc2c(c1)c(CC(=O)O)c(C)n2C(=O)c1ccc(Cl)cc1` [IND], the IC50 in experiment [1] was 35.7 ± 5.34 µM; in experiment [2], 0.26 ± 0.01 mM.

Turning to `C[C@@H]1C[C@H]2[C@@H]3CCC4=CC(=O)C=C[C@]4(C)[C@@]3(F)[C@@H](O)C[C@]2(C)[C@@]1(O)C(=O)CO` [DEX], the IC50 came to 36.1 ± 2.68 µM in experiment [1] and 0.3 ± 0.02 mM in experiment [2].
